Test results from patent US8609862B2, “Use of an adrenal hormone-modifying agent” (Novartis AG, priority 2010, dated 2013).

Legend:
Rat CYP11B1 = molecular target: T1, Rat CYP11B1 (Rattus norvegicus, UniProt P15393); experiment: In vitro rat CYP11B1 assay; assay type: biochemical; conditions: V79-4 cell homogenate, 11-deoxycorticosterone to corticosterone, SPA
T1 construct: made in house; host or cells: V79-4 cell line #259 (stably selected with geneticin and hygromycin); sonicated homogenate, 500 x g supernatant
T1 sequence (P15393 25-499): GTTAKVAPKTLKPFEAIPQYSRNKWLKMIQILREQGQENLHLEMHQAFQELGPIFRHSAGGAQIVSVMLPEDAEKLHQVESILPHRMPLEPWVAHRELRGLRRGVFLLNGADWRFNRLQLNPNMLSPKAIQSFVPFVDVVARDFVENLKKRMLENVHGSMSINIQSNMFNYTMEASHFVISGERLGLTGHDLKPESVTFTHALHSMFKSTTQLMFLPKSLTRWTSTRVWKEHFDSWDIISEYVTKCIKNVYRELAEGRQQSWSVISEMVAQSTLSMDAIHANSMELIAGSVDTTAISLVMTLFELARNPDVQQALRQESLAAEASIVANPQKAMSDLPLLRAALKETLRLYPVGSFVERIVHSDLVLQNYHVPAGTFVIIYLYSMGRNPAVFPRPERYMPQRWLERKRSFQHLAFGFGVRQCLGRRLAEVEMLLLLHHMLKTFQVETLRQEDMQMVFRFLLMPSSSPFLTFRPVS
Description: Complete EDTA-free protease inhibitor tablets were obtained from Roche Applied Science (Indianapolis, Ind.). Dulbecco's modified Eagle medium (DMEM), antibiotic, geneticin, hygromycin, and fetal bovine serum (FBS) were products of Invitrogen (Carlsbad, Calif.). NADPH Regeneration Solution A and Solution B were purchased from BD Biosciences Clontech (Palo Alto, Calif.). Anti-sheep PVT SPA beads and [1,2,6,7-^3H(N)]corticosterone were acquired from Amersham (Piscataway, N.J.) and PerkinElmer (Boston, Mass.), respectively.
For enzyme preparation, #259 cells were seeded in 150 mm dishes in double-selection medium. Following 2 days of growth, cells were washed once with PBS, scraped and collected in PBS, and centrifuged at 1,300 rpm for 6 min. […] The sonication procedure was repeated 3 more times, with a 5 min rest on ice between sonications. The sonicated material was then spun at 500×g for 4 min to remove unbroken cells. The supernatant was brought to a final glycerol concentration of 5%, flash-frozen in liquid nitrogen, and stored at −80° C.
The CYP11B1 assays were performed in 96-well U-bottom non-tissue-culture-treated plates. […] Plates were then centrifuged at 2,400 rpm for 6 min, and 50 μl of supernatant was removed for measurement of corticosterone content by scintillation proximity assay (SPA).
Measurement of corticosterone was performed using a 96-well plate format. […] Anti-sheep PVT SPA beads (50 μl) were then added to each well and incubated overnight at room temperature prior to counting in a Microbeta plate counter. The amount of corticosterone in each sample was calculated by comparing with a standard curve generated using known quantities of the hormone.
Full concentration-response curves of an inhibitor were performed at least 3 times. The IC50 values were derived using a non-linear least squares curve-fitting program from IDBS XLfit.

Human CYP11B2 = molecular target: T2, Human CYP11B2 (Homo sapiens, UniProt P19099); experiment: In vitro human CYP11B2 (aldesterone) assay in NCI-H295R cells; assay type: cell-based; conditions: 1 μM Ang II, 24 hr, aldosterone production by SPA
T2 construct: host or cells: NCI-H295R human adrenocortical carcinoma cells, stimulated with 1 uM Ang II
T2 sequence (P19099 25-503): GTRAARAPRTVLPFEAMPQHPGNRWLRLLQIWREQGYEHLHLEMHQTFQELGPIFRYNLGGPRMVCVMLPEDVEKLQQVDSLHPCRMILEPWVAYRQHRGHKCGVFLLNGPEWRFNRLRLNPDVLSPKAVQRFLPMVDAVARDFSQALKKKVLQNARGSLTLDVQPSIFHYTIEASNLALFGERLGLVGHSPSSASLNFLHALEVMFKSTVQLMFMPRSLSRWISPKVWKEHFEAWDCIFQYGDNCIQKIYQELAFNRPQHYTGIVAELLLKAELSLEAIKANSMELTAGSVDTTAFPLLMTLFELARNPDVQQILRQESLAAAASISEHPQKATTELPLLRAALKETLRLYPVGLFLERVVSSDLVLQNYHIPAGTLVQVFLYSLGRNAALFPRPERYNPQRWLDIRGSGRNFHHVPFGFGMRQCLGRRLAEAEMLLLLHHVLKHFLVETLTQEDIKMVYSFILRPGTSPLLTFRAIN
Description: Human adrenocortical carcinoma NCI-H295R cell line was obtained from American Type Culture Collection (Manassas, Va.). […] Anti-mouse PVT scintillation proximity assay (SPA) beads and NBS 96-well plates were obtained from GE Health Sciences (Piscataway, N.J.) and Corning (Acton, Mass.), respectively. Solid black 96-well flat bottom plates were purchased from Costar (Corning, N.Y.). Aldosterone and angiotensin (Ang II) were purchased from Sigma (St. Louis, Mo.). D-[1,2,6,7-^3H(N)]aldosterone was acquired from PerkinElmer (Boston, Mass.). Nu-serum was a product of BD Biosciences (Franklin Lakes, N.J.).
Measurement of aldosterone activity can also be performed using a 96-well plate format. […] The amount of aldosterone in each sample is calculated by comparing with a standard curve generated using known quantities of the hormone.
Inhibition of the release of certain steroids can be used as a measure of the respective enzyme inhibition by the added test compounds. […] The inhibition plot is calculated by fitting a 4-parameter logistic function to the raw data points using the least squares method. The equation of the 4-parameter logistic function is calculated as follows: Y=(d−a)/((1+(x/c)b))+a, where: a=minimum data level, b=gradient, I […], d=maximum data level, x=inhibitor concentration.

SMILES | IC50 (Rat CYP11B1) [nM] | IC50 (Human CYP11B2) [nM]
N#Cc1ccc(C2CCCCc3cncn32)c(Br)c1 (racemic) [3-bromo-4-(6,7,8,9-tetrahydro-5H-imidazo[1,5-a]azepin-5-yl)benzonitrile racemate, 3-bromo-4-(6,7,8,9-tetrahydro-5H-imidazo[1,5-a]azepin-5-yl)benzonitrile] | 1 | 1.2
N#Cc1ccc(C2CCCCc3cncn32)c(-c2ccc(F)cc2)c1 (single isomer, unassigned) [4′-fluoro-6-(6,7,8,9-tetrahydro-5H-imidazo[1,5-a]azepin-5-yl)biphenyl-3-carbonitrile] | 0.3 | 0.4
COc1ccc(CN(C)C(=O)C2(c3ccc(C#N)cc3Cl)CCc3cncn32)cc1 (stereo not drawn) [5-(2-chloro-4-cyanophenyl)-N-(4-methoxybenzyl)-N-methyl-6,7-dihydro-5H-pyrrolo[1,2-c]imidazole-5-carboxamide] | 2 | 2.7
